Data published in article PMC7101356, “Cross-site and cross-platform variability of automated patch clamp assessments of drug effects on human cardiac currents in recombinant cells” (Scientific Reports, 2020).

Key:
[1] = based on CiPA evaluations; cited from earlier work
late hNav1.5 = target: T1, late hNav1.5 (Homo sapiens, UniProt Q14524); assay: Automated patch clamp, late hNav1.5 current block (ATX-II activated); type: cell-based; settings: for Late hNav1.5 Na+ current inhibition, Mean: 1.00E-05 mol/L
T1 construct: expressed in transfected cells; host or cells: HEK293 or CHO, depending on site

peak hNav1.5 = target: T2, peak hNav1.5 (Homo sapiens, UniProt Q14524); assay: Automated patch clamp, peak hNav1.5 current block; type: cell-based; settings: for nH (=constant), peak hNav1.5 Na+ current inhibition: Hill slope held constant in fit
T2 construct: expressed in transfected cells; host or cells: HEK293 or CHO, depending on site

hCav1.2 = hCav1.2 (Homo sapiens, UniProt Q13936); assay: Automated patch clamp, hCav1.2 current block; settings: for IC50: log IC50, half-maximal inhibitory concentration
Experimental: Peak current was measured during the step to 0 mV. Leak current was measured after applying a saturating concentration of a blocker such as cadmium (200 µM) at the end of each experiment to completely block hCav1.2 current.
Concentration-response relationships for each test article were independently investigated, i.e., each cell received only one test article, typically evaluating multiple concentrations in a cumulative fashion (lowest to highest concentrations). However, some platforms tested only one concentration per well. Each concentration response was based on a minimum of four concentrations, with a minimum of three wells used for each concentration. In cases of high variability, more cells per concentration were recorded. Prior to drug addition, cells received an addition of vehicle to measure non-test article-related effects such as addition artifacts. At the end of the experiment, a supramaximal concentration of a known inhibitory reference compound was applied to assess leak current and appropriate responsiveness of the test system. While it was recommended that a separate group of cells (n ≥ 3) be recorded for each experimental day to determine the baseline response to vehicle and to address day-to-day variability, this was not verified.
These criteria were applied to all APC platforms.
The steady state current at each concentration was used to determine the concentration-response relationships. Mean concentration-response data were fitted to a standard sigmoidal four-parameter logistic equation (GraphPad Prism 7; GraphPad Inc., La Jolla, CA) of the form: Y=Bottom+(Top−Bottom)/(1+10^∧(LogIC50−X)∗HillSlope) where Y is the current inhibition (in % of pre-drug control), X is the logarithm of drug concentration, and IC50 is the drug concentration producing half-maximal current inhibition. Curve fitting was performed using the following constraints: Top = 100%, Bottom = 0%, Hill Slope <2. No curve fitting was performed in cases with an obvious lack of a concentration-dependent current inhibition and/or small effect size (approximately ≤20%).

[2] = site s02_p2, corrected for rundown

Sequence of hCav1.2 (Q13936 whole entry): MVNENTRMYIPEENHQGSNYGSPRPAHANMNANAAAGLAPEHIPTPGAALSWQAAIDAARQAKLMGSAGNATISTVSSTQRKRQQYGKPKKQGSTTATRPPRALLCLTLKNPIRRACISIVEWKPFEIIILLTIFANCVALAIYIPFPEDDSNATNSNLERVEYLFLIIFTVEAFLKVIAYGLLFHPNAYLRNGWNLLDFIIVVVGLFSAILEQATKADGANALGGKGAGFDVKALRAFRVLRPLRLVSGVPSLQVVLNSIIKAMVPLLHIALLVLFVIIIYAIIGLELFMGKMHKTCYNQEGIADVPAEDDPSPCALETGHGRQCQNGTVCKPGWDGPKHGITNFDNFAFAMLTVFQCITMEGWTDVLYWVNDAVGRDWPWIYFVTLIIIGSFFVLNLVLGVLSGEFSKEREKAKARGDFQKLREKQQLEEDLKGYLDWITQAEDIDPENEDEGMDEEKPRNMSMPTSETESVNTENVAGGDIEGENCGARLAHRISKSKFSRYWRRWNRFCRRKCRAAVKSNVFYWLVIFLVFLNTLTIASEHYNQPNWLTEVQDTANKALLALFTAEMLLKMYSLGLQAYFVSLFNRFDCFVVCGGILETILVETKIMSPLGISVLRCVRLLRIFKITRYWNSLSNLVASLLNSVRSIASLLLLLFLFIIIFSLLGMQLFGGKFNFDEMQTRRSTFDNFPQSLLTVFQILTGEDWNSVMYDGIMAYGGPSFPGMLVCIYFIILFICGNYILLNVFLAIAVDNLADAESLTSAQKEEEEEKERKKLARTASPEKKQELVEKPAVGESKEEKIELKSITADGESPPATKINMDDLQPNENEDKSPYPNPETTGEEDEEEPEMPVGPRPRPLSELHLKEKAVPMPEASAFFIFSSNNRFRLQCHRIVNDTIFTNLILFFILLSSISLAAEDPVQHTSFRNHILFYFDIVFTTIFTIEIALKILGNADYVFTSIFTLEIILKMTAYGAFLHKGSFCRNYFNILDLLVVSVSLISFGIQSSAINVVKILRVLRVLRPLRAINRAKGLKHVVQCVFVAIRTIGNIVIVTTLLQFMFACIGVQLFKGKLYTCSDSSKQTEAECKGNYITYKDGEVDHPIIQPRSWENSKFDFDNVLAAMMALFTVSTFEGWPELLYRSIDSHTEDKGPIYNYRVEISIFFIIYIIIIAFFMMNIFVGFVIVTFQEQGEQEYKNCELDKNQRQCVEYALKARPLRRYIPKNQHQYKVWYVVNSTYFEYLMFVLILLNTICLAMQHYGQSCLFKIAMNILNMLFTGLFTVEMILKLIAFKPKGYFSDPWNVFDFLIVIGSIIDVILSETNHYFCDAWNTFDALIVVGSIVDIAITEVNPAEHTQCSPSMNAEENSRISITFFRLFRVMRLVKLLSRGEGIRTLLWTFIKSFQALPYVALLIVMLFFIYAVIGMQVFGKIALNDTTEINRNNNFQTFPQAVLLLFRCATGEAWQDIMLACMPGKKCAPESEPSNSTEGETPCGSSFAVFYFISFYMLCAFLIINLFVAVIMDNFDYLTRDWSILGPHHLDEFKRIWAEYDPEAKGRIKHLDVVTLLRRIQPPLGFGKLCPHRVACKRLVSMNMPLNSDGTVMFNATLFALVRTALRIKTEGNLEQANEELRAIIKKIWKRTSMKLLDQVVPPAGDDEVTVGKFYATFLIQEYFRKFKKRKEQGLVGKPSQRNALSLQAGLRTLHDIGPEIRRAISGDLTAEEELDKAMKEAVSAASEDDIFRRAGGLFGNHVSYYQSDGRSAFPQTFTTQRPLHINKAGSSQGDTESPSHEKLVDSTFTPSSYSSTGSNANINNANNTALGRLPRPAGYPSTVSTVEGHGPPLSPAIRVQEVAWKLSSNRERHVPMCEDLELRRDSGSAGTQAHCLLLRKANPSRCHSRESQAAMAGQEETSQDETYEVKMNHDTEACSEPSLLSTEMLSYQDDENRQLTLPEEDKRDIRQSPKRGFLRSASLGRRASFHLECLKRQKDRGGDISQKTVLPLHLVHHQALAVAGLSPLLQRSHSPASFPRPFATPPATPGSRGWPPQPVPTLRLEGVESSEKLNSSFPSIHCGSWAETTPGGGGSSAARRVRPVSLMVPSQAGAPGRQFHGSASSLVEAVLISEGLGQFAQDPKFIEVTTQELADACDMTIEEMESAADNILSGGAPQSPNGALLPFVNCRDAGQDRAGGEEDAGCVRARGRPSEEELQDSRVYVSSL
Sequence of hCav1.2 (Q08289 whole entry partner): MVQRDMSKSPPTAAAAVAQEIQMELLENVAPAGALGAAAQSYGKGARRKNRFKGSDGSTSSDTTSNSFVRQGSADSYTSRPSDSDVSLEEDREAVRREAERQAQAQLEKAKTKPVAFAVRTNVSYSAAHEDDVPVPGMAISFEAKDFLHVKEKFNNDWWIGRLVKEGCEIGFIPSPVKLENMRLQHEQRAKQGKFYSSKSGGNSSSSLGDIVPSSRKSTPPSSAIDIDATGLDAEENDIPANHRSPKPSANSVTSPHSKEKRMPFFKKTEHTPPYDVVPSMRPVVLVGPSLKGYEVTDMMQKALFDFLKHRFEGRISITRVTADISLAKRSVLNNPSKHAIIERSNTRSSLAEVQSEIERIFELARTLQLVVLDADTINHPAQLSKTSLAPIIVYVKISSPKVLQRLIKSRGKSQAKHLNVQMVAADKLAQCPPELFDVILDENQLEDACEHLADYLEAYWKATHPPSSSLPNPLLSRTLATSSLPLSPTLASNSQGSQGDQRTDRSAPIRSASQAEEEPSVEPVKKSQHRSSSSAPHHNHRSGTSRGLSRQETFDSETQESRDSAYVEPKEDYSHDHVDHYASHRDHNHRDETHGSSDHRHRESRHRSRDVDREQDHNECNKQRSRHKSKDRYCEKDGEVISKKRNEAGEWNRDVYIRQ
Sequence of hCav1.2 (P54289 25-956 partner limits assumed): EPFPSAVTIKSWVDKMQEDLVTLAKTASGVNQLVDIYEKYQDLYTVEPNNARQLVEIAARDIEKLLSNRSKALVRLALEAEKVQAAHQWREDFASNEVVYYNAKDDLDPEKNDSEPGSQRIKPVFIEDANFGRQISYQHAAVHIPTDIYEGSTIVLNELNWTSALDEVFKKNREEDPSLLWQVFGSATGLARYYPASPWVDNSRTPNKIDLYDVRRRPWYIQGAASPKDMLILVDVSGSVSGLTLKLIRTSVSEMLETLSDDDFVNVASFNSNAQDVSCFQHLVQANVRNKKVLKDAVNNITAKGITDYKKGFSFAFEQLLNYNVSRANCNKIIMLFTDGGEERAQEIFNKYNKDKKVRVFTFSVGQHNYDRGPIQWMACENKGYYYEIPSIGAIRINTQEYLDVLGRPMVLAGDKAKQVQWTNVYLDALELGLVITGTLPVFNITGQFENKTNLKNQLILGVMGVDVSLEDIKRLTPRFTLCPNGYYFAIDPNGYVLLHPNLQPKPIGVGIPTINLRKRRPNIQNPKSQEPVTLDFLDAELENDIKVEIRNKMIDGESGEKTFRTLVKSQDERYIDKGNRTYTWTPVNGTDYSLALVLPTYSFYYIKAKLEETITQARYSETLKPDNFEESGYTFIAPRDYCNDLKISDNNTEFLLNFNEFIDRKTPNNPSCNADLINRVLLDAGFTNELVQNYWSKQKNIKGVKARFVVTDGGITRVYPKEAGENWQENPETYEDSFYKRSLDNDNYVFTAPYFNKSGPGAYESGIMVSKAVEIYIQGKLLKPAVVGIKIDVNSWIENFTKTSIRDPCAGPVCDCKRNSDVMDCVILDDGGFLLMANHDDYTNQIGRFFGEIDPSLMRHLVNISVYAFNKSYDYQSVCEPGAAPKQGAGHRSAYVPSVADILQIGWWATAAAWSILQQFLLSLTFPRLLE
Sequence of hCav1.2 (P54289 957-1103 partner limits assumed): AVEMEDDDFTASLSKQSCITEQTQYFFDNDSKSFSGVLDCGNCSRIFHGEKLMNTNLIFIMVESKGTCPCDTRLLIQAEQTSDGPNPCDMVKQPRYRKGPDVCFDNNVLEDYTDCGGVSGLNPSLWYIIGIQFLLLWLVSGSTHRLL

Compound: CN(C)CCCN1c2ccccc2Sc2ccc(Cl)cc21 [cpz, chlorpromazine]
- TdP Risk Category [1]: Intermediate

Compound: CN(CCOc1ccc(NS(C)(=O)=O)cc1)CCc1ccc(NS(C)(=O)=O)cc1 [dof, dofetilide]
- TdP Risk Category [1]: High

Compound: C=C[C@H]1C[N@@]2CC[C@H]1C[C@@H]2[C@@H](O)c1ccnc2ccc(OC)cc12 [qui, quinidine]
- nH, Hill slope, late hNav1.5 inhibition (late hNav1.5; site_platform s06_p4): 0.91
- Late hNav1.5 Na+ current inhibition, Mean (late hNav1.5; site_platform s06_p4): 78.1%
- nH, Hill slope, late hNav1.5 inhibition (late hNav1.5; site_platform s07_p6): 0.74
- Late hNav1.5 Na+ current inhibition, Mean (late hNav1.5; site_platform s07_p6): 46.2%
- nH, Hill slope, late hNav1.5 inhibition (late hNav1.5; site_platform s13_p2): 0.63
- nH, Hill slope, late hNav1.5 inhibition (late hNav1.5; site_platform s14_p1): 2.00
- Late hNav1.5 Na+ current inhibition, Mean (late hNav1.5; site_platform s14_p1): 68.8%
- TdP Risk Category [1]: High
- Peak hNav1.5 Na+ current inhibition, Mean (peak hNav1.5; site_platform s01_p1, 1.00E-05 mol/L): 72.9%
- Peak hNav1.5 Na+ current inhibition, Mean (peak hNav1.5; site_platform s01_p1, 1.00E-07 mol/L): 51.7%
- nH (=constant), peak hNav1.5 Na+ current inhibition (peak hNav1.5; site_platform s01_p1): 1
- nH (=constant), peak hNav1.5 Na+ current inhibition (peak hNav1.5; site_platform s02_p2): 1
- nH (=constant), peak hNav1.5 Na+ current inhibition (peak hNav1.5; site_platform s04_p3): 1
- nH (=constant), peak hNav1.5 Na+ current inhibition (peak hNav1.5; site_platform s06_p4): 1
- nH (=constant), peak hNav1.5 Na+ current inhibition (peak hNav1.5; site_platform s07_p6): 1
- nH, Hill slope, peak hNav1.5 inhibition (peak hNav1.5; site_platform s10_p3): 1
- nH, Hill slope, peak hNav1.5 inhibition (peak hNav1.5; site_platform s11_p1): 1
- Peak hNav1.5 Na+ current inhibition, Mean (peak hNav1.5; site_platform s11_p1, 1.00E-05 mol/L): 30.0%
- nH, Hill slope, peak hNav1.5 inhibition (peak hNav1.5; site_platform s12_p2): 1
- nH, Hill slope, peak hNav1.5 inhibition (peak hNav1.5; site_platform s13_p2): 1
- nH, Hill slope, peak hNav1.5 inhibition (peak hNav1.5; site_platform s14_p1): 1
- nH, Hill slope, peak hNav1.5 inhibition (peak hNav1.5; site_platform s15_p1): 1
- Peak hNav1.5 Na+ current inhibition, Mean (peak hNav1.5; site_platform s15_p1, 1.00E-05 mol/L): 52.7%
- nH, Hill slope, peak hNav1.5 inhibition (peak hNav1.5; site_platform s16_p3): 1
- nH, Hill slope, peak hNav1.5 inhibition (peak hNav1.5; site_platform s17_p1): 1
- Peak hNav1.5 Na+ current inhibition, Mean (peak hNav1.5; site_platform s17_p1, 1.00E-05 mol/L): 54.0%
- nH, Hill slope, peak hNav1.5 inhibition (peak hNav1.5; site_platform s18_p1): 1
- nH, Hill slope, peak hNav1.5 inhibition (peak hNav1.5; site_platform s19_p3): 1

Compound: COc1ccccc1OCC(O)CN1CCN(CC(=O)Nc2c(C)cccc2C)CC1 (stereo not shown) [ran, ranolazine]
- TdP Risk Category [1]: Low
- IC50 (hCav1.2; [2]): 501 µM
- IC50 (hCav1.2; site s06_p4): 186 µM
- IC50 (hCav1.2; site s11_p1): 1350 µM
- IC50 (hCav1.2; site s14_p1): 245 µM
- IC50 (hCav1.2; site s16_p3): 3090 µM
- IC50 (hCav1.2; site s18_p1): 148 µM
- Peak hCav1.2 Ca2+ current inhibition, Mean (hCav1.2; site s01_p1, 1.00E-04 mol/L): 9.0%
- Peak hCav1.2 Ca2+ current inhibition, Mean (hCav1.2; site s01_p1, 3.00E-06 mol/L): -2.7%
- nH, Hill slope (hCav1.2; [2]): 0.74
- Peak hCav1.2 Ca2+ current inhibition, Mean (hCav1.2; site s02_p2, corrected for rundown, 1.00E-04 mol/L): 22.9%
- Peak hCav1.2 Ca2+ current inhibition, Mean (hCav1.2; site s02_p2, corrected for rundown, 3.00E-06 mol/L): -1.8%
- nH, Hill slope (hCav1.2; site s06_p4): 2.00
- Peak hCav1.2 Ca2+ current inhibition, Mean (hCav1.2; site s06_p4, 1.00E-04 mol/L): 23.0%
- Peak hCav1.2 Ca2+ current inhibition, Mean (hCav1.2; site s06_p4, 3.00E-06 mol/L): 12.9%
- nH, Hill slope (hCav1.2; site s11_p1): 0.32
- Peak hCav1.2 Ca2+ current inhibition, Mean (hCav1.2; site s11_p1, 1.00E-04 mol/L): 33.0%
- Peak hCav1.2 Ca2+ current inhibition, Mean (hCav1.2; site s11_p1, 3.00E-06 mol/L): 14.1%
- nH, Hill slope (hCav1.2; site s14_p1): 1.42
- Peak hCav1.2 Ca2+ current inhibition, Mean (hCav1.2; site s14_p1, 1.00E-04 mol/L): 21.7%
- Peak hCav1.2 Ca2+ current inhibition, Mean (hCav1.2; site s14_p1, 3.00E-06 mol/L): -1.7%
- nH, Hill slope (hCav1.2; site s16_p3): 0.24
- Peak hCav1.2 Ca2+ current inhibition, Mean (hCav1.2; site s16_p3, 1.00E-04 mol/L): 31.8%
- Peak hCav1.2 Ca2+ current inhibition, Mean (hCav1.2; site s16_p3, 3.00E-06 mol/L): 16.5%
- nH, Hill slope (hCav1.2; site s18_p1): 2.00
- Peak hCav1.2 Ca2+ current inhibition, Mean (hCav1.2; site s18_p1, 1.00E-04 mol/L): 36.1%
- Peak hCav1.2 Ca2+ current inhibition, Mean (hCav1.2; site s18_p1, 3.00E-06 mol/L): -14.2%

Compound: CC(C)(C)c1ccc(C(O)CCCN2CCC(C(O)(c3ccccc3)c3ccccc3)CC2)cc1 (stereo not shown) [ter, terfenadine]
- nH, Hill slope (hCav1.2; site s01_p1): 1.62
- Peak hCav1.2 Ca2+ current inhibition, Mean (hCav1.2; site s01_p1, 3.00E-07 mol/L): 35.6%
- nH, Hill slope (hCav1.2; [2]): 1.40
- Peak hCav1.2 Ca2+ current inhibition, Mean (hCav1.2; site s02_p2, corrected for rundown, 3.00E-07 mol/L): 74.7%
- nH, Hill slope (hCav1.2; site s04_p3): 0.41
- Peak hCav1.2 Ca2+ current inhibition, Mean (hCav1.2; site s04_p3, 3.00E-07 mol/L): 32.9%
- nH, Hill slope (hCav1.2; site s16_p3): 0.65
- Peak hCav1.2 Ca2+ current inhibition, Mean (hCav1.2; site s16_p3, 3.00E-07 mol/L): 52.1%
- nH, Hill slope (hCav1.2; site s18_p1): 2.00
- Peak hCav1.2 Ca2+ current inhibition, Mean (hCav1.2; site s18_p1, 3.00E-07 mol/L): 56.4%
